Values joined by “and” are separate entries in the source; they are usually repeats but may differ in a detail not shown here. Equal values may be shown once. Read-outs that look alike come from different tables or passages of the source.
Legend:
BuChE from equine serum = biological target: T1, BuChE from equine serum (Equus caballus, UniProt P81908); assay: biochemical
T1 construct: 12 U/ml BuChE from equine serum; from tissue; host or cells: equine serum
Procedure: (§1) Cholinesterase activity is determined using a modified colorimetric method first described by Ellman[40]. […] The stock was then further diluted by factors of ten to produce solutions of 1 mM, 100 µM, 10 µM, 1 µM, and 0.1 µM which corresponds to concentrations of 100 µM, 10 µM, 1 µM, 0.1 µM, and 0.01 µM in the final reaction mixture. The test concentrations were stored in the refrigerator until the day of the assay. Trisma HCl buffer (50 mM, adjusted to pH 8 with 2 N NaOH) was prepared as the buffer and used to prepare enzyme stock solution (22 U/ml for Electrophorus electricus AChE and 12 U/ml BuChE from equine serum), 15 mM acetylthiocholine iodide, 15 mM S-butyrylthiocholine iodide and 1.5 mM DTNB (Ellman’s reagent). The enzyme stock solution was stabilised with 1% bovine serum albumin and stored in aliquots at −80 °C. A clear, flat bottom 96 well plate was used to perform the experiments with each concentration performed in triplicate. Prior to the assay the background absorbance for each compound at the different test concentrations was measured and accounted for when reading the final absorbance. […] Following this, 30 µl of the substrate was added to each well simultaneously using a multi pipette. […] A one-sample t-test was performed on the data to test for statistical significance.

[1] = biological target: Electrophorus electricus AChE (Electrophorus electricus, UniProt O42275); assay: biochemical; details: for IC50: 25 °C, pH 8
Chain of Electrophorus electricus AChE (O42275 24-633): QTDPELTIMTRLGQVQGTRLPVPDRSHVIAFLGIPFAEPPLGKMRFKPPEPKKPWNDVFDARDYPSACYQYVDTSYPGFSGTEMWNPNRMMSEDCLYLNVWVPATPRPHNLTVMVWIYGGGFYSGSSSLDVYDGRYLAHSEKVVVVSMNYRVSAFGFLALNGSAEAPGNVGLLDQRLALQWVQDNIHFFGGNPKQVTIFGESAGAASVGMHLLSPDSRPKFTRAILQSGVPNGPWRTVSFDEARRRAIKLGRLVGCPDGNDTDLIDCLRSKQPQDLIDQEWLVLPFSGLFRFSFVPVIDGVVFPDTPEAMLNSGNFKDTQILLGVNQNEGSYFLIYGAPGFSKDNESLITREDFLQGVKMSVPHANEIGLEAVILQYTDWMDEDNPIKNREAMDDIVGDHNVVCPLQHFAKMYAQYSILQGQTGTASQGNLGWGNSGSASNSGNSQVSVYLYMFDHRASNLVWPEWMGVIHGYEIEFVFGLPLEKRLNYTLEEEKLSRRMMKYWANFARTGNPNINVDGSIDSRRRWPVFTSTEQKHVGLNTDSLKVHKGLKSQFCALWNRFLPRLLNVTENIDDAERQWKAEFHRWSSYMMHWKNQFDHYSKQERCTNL
Procedure: as §1

recombinant human MAO-B = recombinant human MAO-B (Homo sapiens, UniProt P27338); assay: MAO-B fluorometric assay (kynuramine); assay type: biochemical; details: for IC50: kynuramine 30 µM, 37 °C, read-out: MAO-B IC50
Chain of recombinant human MAO-B (P27338 whole entry): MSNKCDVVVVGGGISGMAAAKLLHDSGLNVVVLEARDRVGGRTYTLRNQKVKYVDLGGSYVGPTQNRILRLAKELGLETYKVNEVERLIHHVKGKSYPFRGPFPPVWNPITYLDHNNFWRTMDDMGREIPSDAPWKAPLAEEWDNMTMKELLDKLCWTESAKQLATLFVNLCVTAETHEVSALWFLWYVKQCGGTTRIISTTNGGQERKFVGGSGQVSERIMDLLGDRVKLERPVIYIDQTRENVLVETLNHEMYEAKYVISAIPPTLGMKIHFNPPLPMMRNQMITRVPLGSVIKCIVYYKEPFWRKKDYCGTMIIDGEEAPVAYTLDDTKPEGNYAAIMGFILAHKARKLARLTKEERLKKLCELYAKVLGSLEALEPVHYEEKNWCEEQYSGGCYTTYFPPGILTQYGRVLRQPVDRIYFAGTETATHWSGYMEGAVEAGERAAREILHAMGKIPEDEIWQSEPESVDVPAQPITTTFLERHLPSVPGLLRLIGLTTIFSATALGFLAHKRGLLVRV
Procedure: . The stock was then further diluted by factors of ten to produce solutions of 1 mM, 100 µM, 10 µM, 1 µM, and 0.1 µM which would correspond to concentrations of 100 µM, 10 µM, 1 µM, 0.1 µM, and 0.01 µM in the final reaction mixture. A potassium phosphate buffer ([…] 100 mM, pH 7.4, 0.9% w/v NaCl) was prepared and refrigerated until further use. The enzyme stock solutions were prepared by dissolving 2.5 mg of enzyme in 33.33 ml of phosphate buffer to produce stock solutions of 0.075 mg/ml which were stored in aliquots at −80 °C until use. […]. The substrate was prepared by dissolving kynuramine in potassium buffer and was prepared as two separate concentrations; […]. The fresh substrate was prepared on the day of the assay. The assay was carried out in 2 ml Eppendorf vials. […] Following this, 25 µl of the enzyme stock were added to each vial in 10 s intervals and the vials were incubated at 37 °C for 10 min. After this time period 15 µl of kynuramine (750 µM for MAO-A and 500 µM for MAO-B) was added at 10 s intervals and further incubated for 20 min. To stop the reaction at the end of this time 150 hx00B5;l of 2 N NaOH was added and the mixture was shaken. Using a micropipette 80 hx00B5;l of the mixture was transferred to a well in a black 96 well plate. The plate was placed in the fluorescent plate reader and read at an excitation/emission wavelength of 310 nm/410 nm. Each assay was run in triplicate and the data were analysed with Graph Pad Prism 8 software (San Diego, USA).
The MAO inhibitory activity of the compounds was assessed using a fluorometric assay with recombinant human MAO-A and human MAO-B enzymes. […].

[2] = tested on: MPP+-compromised SH-SY5Y neuroblastoma cells; assay type: cell-based, human; details: 10 µM compound, 2000 µM MPP+; for survival rate of MPP+-treated cells: untreated control = 100%; for MPP+ neuroprotection (difference in percentage cell viability vs MPP+ only treated cells): 2 h pre-treatment, 24 h, SH-SY5Y
Procedure: SH-SY5Y cells were seeded onto a 96-well plate in a growth medium at a density of 10,000 cells/well. Cells were pre-treated with test compounds at a concentration of 10 µM and thereafter 2000 µM MPP^+ following a 2-h incubation period. Afterwards, cells were incubated for 24 h and MTT colorimetric assay was used to measure cell viability relative to untreated control. To determine the data’s statistical significance, the One-way ANOVA Turkey’s multiple comparison test was conducted on all experimental replicates using GraphPad Prism® 8 (San Diego, USA).
The SH-SY5Y cells were pre-treated with 10 µM of the test compounds for 2 h followed by the addition of 2000 µM of MPP^+.

[3] = Ellman method, 25 °C, pH 8, read-out: BuChE IC50
[4] = Ellman method, read-out: AChE IC50

T1 sequence (P81908 whole entry): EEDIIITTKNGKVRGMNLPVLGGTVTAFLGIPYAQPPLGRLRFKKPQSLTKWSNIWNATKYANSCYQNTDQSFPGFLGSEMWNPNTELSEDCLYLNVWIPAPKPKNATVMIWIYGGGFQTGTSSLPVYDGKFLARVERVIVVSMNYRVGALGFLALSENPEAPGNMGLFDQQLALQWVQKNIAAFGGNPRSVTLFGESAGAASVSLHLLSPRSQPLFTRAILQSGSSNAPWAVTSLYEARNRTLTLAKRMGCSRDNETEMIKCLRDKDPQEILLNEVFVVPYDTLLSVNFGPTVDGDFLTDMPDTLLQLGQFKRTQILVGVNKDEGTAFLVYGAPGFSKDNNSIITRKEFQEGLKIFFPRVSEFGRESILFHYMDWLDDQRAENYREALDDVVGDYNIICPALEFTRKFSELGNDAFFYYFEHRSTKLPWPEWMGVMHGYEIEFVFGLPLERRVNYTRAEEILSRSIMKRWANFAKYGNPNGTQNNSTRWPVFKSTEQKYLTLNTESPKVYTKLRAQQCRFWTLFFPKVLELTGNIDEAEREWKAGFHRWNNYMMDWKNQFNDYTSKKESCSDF

Row | SMILES | IC50 (BuChE from equine serum; [3]) [µM] | IC50 [1, 4] | SI MAO-B (MAO-B selectivity index = IC50(MAO-A)/IC50(MAO-B)) (recombinant human MAO-B) | IC50 (recombinant human MAO-B) [µM] | survival rate of MPP+-treated cells [2] [%] | MPP+ neuroprotection (difference in percentage cell viability vs MPP+ only treated cells) [2] [%] | IC50 (BuChE from equine serum) [µM] | IC50 ([1]; AChE IC50, Ellman method) [µM] | inhibition at 100 µM ([1]; at 100 µM, read-out: AChE enzyme inhibition) [%]
1 | C#CCNCc1cc2ccc(OCCc3ccccc3)cc2oc1=O [Compound 6, 7-(2-phenylethoxy)-3-{[(prop-2-yn-1-yl)amino]methyl}-2H-1-benzopyran-2-one] | > 100 | > 100 µM | 133.2 | 0.029 | 92 | 35.96 | – | – | –
2 | O=c1oc2cc(OCCc3ccccc3)ccc2cc1CBr [Compound 4, 3-(bromomethyl)-7-(2-phenylethoxy)-2H-1-benzopyran-2-one] | > 100 | > 100 µM | – | > 100 | – | 22.11 | – | – | –
3 | C#CCNCc1cc2ccc(OC(=O)N(CC)CC)cc2oc1=O [Compound 7, 2-oxo-3-{[(prop-2-yn-1-yl)amino]methyl}-2H-1-benzopyran-7-yl-diethylcarbamate] | – | – | 205.9 | 0.101 | 85 | 28.19 | > 100 | > 100 | –
4 | CCN(CC)C(=O)Oc1ccc2cc(CBr)c(=O)oc2c1 [Compound 5, 3-(bromomethyl)-2-oxo-2H-1-benzopyran-7-yl-diethylcarbamate] | 23.3 | ~108 µM and 108 µM | 1.05 | 0.333 | – | 21.86 | – | – | 49

— publication PMC8291583, “Design, synthesis, and evaluation of 3,7-substituted coumarin derivatives as multifunctional Alzheimer’s disease agents” (Journal of Enzyme Inhibition and Medicinal Chemistry, 2021)
